Patent US11484539B2, “Compounds and their uses for alleviating menopause-associated symptoms” (Estetra SPRL, priority 2018, dated 2022)

Test system: post-menopausal women
Assay: Weekly frequency of moderate to severe VMS, dose-finding study
Format: in vivo
Details: for Difference with placebo, LS adjusted mean, absolute change in weekly frequency of moderate to severe VMS / Difference with placebo, LS adjusted mean, relative change in weekly frequency of moderate to severe VMS: 2.5 mg E4 vs placebo
Description: To determine the Minimum Effective Dose (MED), firstly the selection criteria required that patients presented at least 7 moderate to severe VMS/day or at least 50 moderate to severe VMS/week in the week preceding randomization. Secondly, a placebo group was included in a double-blind fashion. Thirdly, the total patient number was such that statistical significance could be obtained between separate arms of the study. Fourthly, the absolute change from baseline in weekly frequency of moderate to severe VMS was taken into account. An analysis of covariance (ANCOVA) was performed based on the untransformed change in weekly frequency of moderate to severe VMS from baseline. Finally, the change in severity from baseline was evaluated. For this, the Severity Scoring System of VMS was documented by the subjects as follows: • a score of Mild (1) for a sensation of heat without sweating; • a score of Moderate (2) for a sensation of heat with sweating/the subject is able to continue activity; and • a score of Severe (3) for a sensation of heat with sweating/which causes cessation of activity.
Enrolment was approximately 18 months. Individual subject participation was up to 27 weeks: up to 6 weeks pre-screening and washout, up to 4 weeks screening and run-in period, up to 91 days (13 weeks) of E4/placebo treatment followed by 2 weeks (14 days) of progestin therapy and a Follow up visit 1 week after completion of progestin therapy in non-hysterectomised subjects only.
To define the minimum effective dose (MED) of the oral dose of E4 by evaluating changes in frequency and in severity of moderate to severe vasomotor symptoms (VMS).
This was a prospective, multicentre, randomised, placebo-controlled, double-blinded, dose-finding study.
Eligible subjects were hysterectomised and non-hysterectomised post-menopausal women aged 40 to 65 years, inclusive, presenting at least 7 moderate to severe hot flushes/day or at least 50 moderate to severe hot flushes/week.
The subjects have met all of the following inclusion criteria at the randomization visit. These criteria were assessed during the screening period: • 1. Women aged 40 to 65 years, inclusive, presenting at least 7 moderate to severe hot flushes/day or at least 50 moderate to severe hot flushes/week in the week preceding randomization. • 2. Body Mass Index (BMI) between 18.0 and 35.0 kg/m^2, inclusive. • 3. Post-menopausal status defined as levels of follicle stimulating hormone (FSH) >40 IU/L and: • amenorrhoea for at least 12 consecutive months or, • amenorrhoea for at least 6 months with estradiol (E2)<20 pg/mL or, • at least 6 weeks post-surgical bilateral oophorectomy with or without hysterectomy with a copy of the pathology report or a statement on letterhead from the subject's physician documenting both ovaries were removed is required. • 4. For non-hysterectomised women: intact uterus with bi-layer endometrial thickness […] on TVUS. • 5. Negative pregnancy test. • 6. Good physical and mental health, in the judgement of the Principal Investigator (PI), on the basis of medical, surgical and gynaecological history, physical examination, gynaecological examination, clinical laboratory, and vital signs. • 7. Subject has provided signed and dated written informed consent before admission to the study. • 8. Subject is able to understand and comply with the protocol requirements, instructions, and protocol-stated restrictions. Exclusion Criteria:
All treatments (Estetrol, hereinafter, E4, [2.5 mg, 5 mg, 10 mg, 15 mg] capsule) were administered once daily (QD) per os for at least 12 consecutive weeks until the last biological assessments (Day 91 maximum) had been performed.
In order to analyse the data recorded in this study, treatment groups have been compared using an ANCOVA (analysis of covariance) with respect to the change in weekly frequency of moderate to severe VMS from baseline to weeks 4 and 12. […]

[1] = 2.5 mg E4, week 4, ANCOVA with study centre
[2] = 2.5 mg E4, week 4, without site effect
[3] = 2.5 mg E4, week 12, ANCOVA with study centre
[4] = 2.5 mg E4, week 12, without site effect
[5] = week 4, ANCOVA with study centre
[6] = week 12, ANCOVA with study centre
[7] = 5 mg E4, week 4, ANCOVA with study centre
[8] = 5 mg E4, week 4, without site effect
[9] = 5 mg E4, week 12, ANCOVA with study centre
[10] = 5 mg E4, week 12, without site effect

Compound: C[C@]12CC[C@@H]3c4ccc(O)cc4CC[C@H]3[C@@H]1[C@@H](O)[C@@H](O)[C@@H]2O [E4, 1,3,5 (10)-estratrien-3,15alpha,16alpha,17beta-tetrol]
- LS adjusted mean change from baseline in weekly frequency of moderate to severe VMS [1]: −32.26
- LS adjusted mean relative change (%) from baseline in weekly frequency of moderate to severe VMS [1]: -48.5%
- LS adjusted mean change from baseline in weekly frequency of moderate to severe VMS [2]: −32.68
- LS adjusted mean relative change (%) from baseline in weekly frequency of moderate to severe VMS [2]: -49.5%
- LS adjusted mean change from baseline in weekly frequency of moderate to severe VMS [3]: −40.13
- LS adjusted mean relative change (%) from baseline in weekly frequency of moderate to severe VMS [3]: -60.6%
- LS adjusted mean change from baseline in weekly frequency of moderate to severe VMS [4]: −40.68
- LS adjusted mean relative change (%) from baseline in weekly frequency of moderate to severe VMS [4]: -62.2%
- Mean change from baseline in weekly frequency of moderate to severe VMS (2.5 mg E4 QD per os, week 1): −17.28
- Relative change (% from baseline) in weekly frequency of moderate to severe VMS, mean (2.5 mg E4 QD per os, week 1): −23%
- Mean change from baseline in weekly frequency of moderate to severe VMS (2.5 mg E4 QD per os, week 2): −25.10
- Relative change (% from baseline) in weekly frequency of moderate to severe VMS, mean (2.5 mg E4 QD per os, week 2): −34%
- Mean change from baseline in weekly frequency of moderate to severe VMS (2.5 mg E4 QD per os, week 3): −32.46
- Relative change (% from baseline) in weekly frequency of moderate to severe VMS, mean (2.5 mg E4 QD per os, week 3): −44%
- Mean change from baseline in weekly frequency of moderate to severe VMS (2.5 mg E4 QD per os, week 4): −35.89
- Relative change (% from baseline) in weekly frequency of moderate to severe VMS, mean (2.5 mg E4 QD per os, week 4): −49%
- Mean change from baseline in weekly frequency of moderate to severe VMS (2.5 mg E4 QD per os, week 5): −37.16
- Relative change (% from baseline) in weekly frequency of moderate to severe VMS, mean (2.5 mg E4 QD per os, week 5): −50%
- Mean change from baseline in weekly frequency of moderate to severe VMS (2.5 mg E4 QD per os, week 6): −39.98
- Relative change (% from baseline) in weekly frequency of moderate to severe VMS, mean (2.5 mg E4 QD per os, week 6): −54%
- Mean change from baseline in weekly frequency of moderate to severe VMS (2.5 mg E4 QD per os, week 7): −42.44
- Relative change (% from baseline) in weekly frequency of moderate to severe VMS, mean (2.5 mg E4 QD per os, week 7): −57%
- Mean change from baseline in weekly frequency of moderate to severe VMS (2.5 mg E4 QD per os, week 8): −43.62
- Relative change (% from baseline) in weekly frequency of moderate to severe VMS, mean (2.5 mg E4 QD per os, week 8): −58%
- Mean change from baseline in weekly frequency of moderate to severe VMS (2.5 mg E4 QD per os, week 9): −45.19
- Relative change (% from baseline) in weekly frequency of moderate to severe VMS, mean (2.5 mg E4 QD per os, week 9): −61%
- Mean change from baseline in weekly frequency of moderate to severe VMS (2.5 mg E4 QD per os, week 10): −45.54
- Relative change (% from baseline) in weekly frequency of moderate to severe VMS, mean (2.5 mg E4 QD per os, week 10): −61%
- Mean change from baseline in weekly frequency of moderate to severe VMS (2.5 mg E4 QD per os, week 11): −44.74
- Relative change (% from baseline) in weekly frequency of moderate to severe VMS, mean (2.5 mg E4 QD per os, week 11): −60%
- Mean change from baseline in weekly frequency of moderate to severe VMS (2.5 mg E4 QD per os, week 12): −45.04
- Relative change (% from baseline) in weekly frequency of moderate to severe VMS, mean (2.5 mg E4 QD per os, week 12): −61%
- Difference with placebo, LS adjusted mean, absolute change in weekly frequency of moderate to severe VMS [5]: 1.536
- Difference with placebo, LS adjusted mean, relative change in weekly frequency of moderate to severe VMS [5]: 0.005984
- Difference with placebo, LS adjusted mean, absolute change in weekly frequency of moderate to severe VMS (week 4, without site effect): 0.9721
- Difference with placebo, LS adjusted mean, relative change in weekly frequency of moderate to severe VMS (week 4, without site effect): −0.005455
- Difference with placebo, LS adjusted mean, absolute change in weekly frequency of moderate to severe VMS [6]: 3.603
- Difference with placebo, LS adjusted mean, relative change in weekly frequency of moderate to severe VMS [6]: 0.03673
- Difference with placebo, LS adjusted mean, absolute change in weekly frequency of moderate to severe VMS (week 12, without site effect): 3.246
- Difference with placebo, LS adjusted mean, relative change in weekly frequency of moderate to severe VMS (week 12, without site effect): 0.02897
- LS adjusted mean change from baseline in weekly frequency of moderate to severe VMS [7]: −27.44
- LS adjusted mean relative change (%) from baseline in weekly frequency of moderate to severe VMS [7]: -42.2%
- LS adjusted mean change from baseline in weekly frequency of moderate to severe VMS [8]: −27.87
- LS adjusted mean relative change (%) from baseline in weekly frequency of moderate to severe VMS [8]: -43.1%
- LS adjusted mean change from baseline in weekly frequency of moderate to severe VMS [9]: −40.68
- LS adjusted mean relative change (%) from baseline in weekly frequency of moderate to severe VMS [9]: -60.3%
- LS adjusted mean change from baseline in weekly frequency of moderate to severe VMS [10]: −41.01
- LS adjusted mean relative change (%) from baseline in weekly frequency of moderate to severe VMS [10]: -61.4%
- Mean change from baseline in weekly frequency of moderate to severe VMS (5 mg E4 QD per os, week 1): −15.04
- Relative change (% from baseline) in weekly frequency of moderate to severe VMS, mean (5 mg E4 QD per os, week 1): −23%
- Mean change from baseline in weekly frequency of moderate to severe VMS (5 mg E4 QD per os, week 2): −21.68
